# Reference: PMC5916021 (Chemical Science, 2018)
# Like-named read-outs stand apart in the source and are kept apart here.
# Tests used:
# [1] = target: T1, CK2α (Homo sapiens, UniProt P68400); details: for Enthalpy / Entropy: ITC; for LE (ligand efficiency): LE = ΔG/[number of heavy atoms]
# [2] = system: kinases; details: cited from earlier work; for number of kinases with > 70% inhibition: at 0.5 µM
# [3] = target: T1, CK2α; assay: biochemical; details: for inhibition at 10 µM: read-out: Inhibition @10 μM; for inhibition at 500 µM: read-out: Inhibition of the kinase activity @ 500 μM
# [4] = system: HCT116 cells; assay: cells; details: Homo sapiens, HCT-116, 72 h
# [5] = physchem; details: kinase assay conditions
# [6] = system: AKT1 serine 129 phosphorylation in HCT116 cells; details: 2 × GI50 (20 μM), 72 hours
# [7] = target: SGK1 (Homo sapiens, UniProt O00141); assay: biochemical; details: read-out: inhibition of SGK1
# [8] = target: SmMLCK (Homo sapiens, UniProt Q15746); assay: biochemical; details: read-out: inhibition of SmMLCK
# [9] = target: CAMK1 (Homo sapiens, UniProt Q14012); assay: biochemical; details: read-out: inhibition of CAMK1
# [10] = system: HCT116 cells; details: from the functional (IC50) to the cellular assay (GI50)
# [11] = target: EF2K (Homo sapiens, UniProt O00418); assay: biochemical; details: read-out: inhibition of EF2K
# [12] = system: panel of 140 kinases; details: 30 μM (4 × IC50)
# [13] = target: T1, CK2α
# [14] = target: T1, CK2α; remark: listed apart in the source
# [15] = system: CK2; details: read-out: IC50 against CK2; cited from earlier work
# T1 sequence (P68400 2-329): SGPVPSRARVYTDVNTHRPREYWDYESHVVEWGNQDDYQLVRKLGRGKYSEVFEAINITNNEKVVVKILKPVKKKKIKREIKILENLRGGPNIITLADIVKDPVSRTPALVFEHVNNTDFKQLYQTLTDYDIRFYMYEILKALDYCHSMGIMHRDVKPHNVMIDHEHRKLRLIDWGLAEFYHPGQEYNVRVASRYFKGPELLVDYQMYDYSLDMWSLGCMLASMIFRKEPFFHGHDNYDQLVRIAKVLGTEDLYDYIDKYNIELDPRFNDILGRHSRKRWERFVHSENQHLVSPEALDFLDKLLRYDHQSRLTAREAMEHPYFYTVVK
# Sequence of EF2K (O00418 whole entry): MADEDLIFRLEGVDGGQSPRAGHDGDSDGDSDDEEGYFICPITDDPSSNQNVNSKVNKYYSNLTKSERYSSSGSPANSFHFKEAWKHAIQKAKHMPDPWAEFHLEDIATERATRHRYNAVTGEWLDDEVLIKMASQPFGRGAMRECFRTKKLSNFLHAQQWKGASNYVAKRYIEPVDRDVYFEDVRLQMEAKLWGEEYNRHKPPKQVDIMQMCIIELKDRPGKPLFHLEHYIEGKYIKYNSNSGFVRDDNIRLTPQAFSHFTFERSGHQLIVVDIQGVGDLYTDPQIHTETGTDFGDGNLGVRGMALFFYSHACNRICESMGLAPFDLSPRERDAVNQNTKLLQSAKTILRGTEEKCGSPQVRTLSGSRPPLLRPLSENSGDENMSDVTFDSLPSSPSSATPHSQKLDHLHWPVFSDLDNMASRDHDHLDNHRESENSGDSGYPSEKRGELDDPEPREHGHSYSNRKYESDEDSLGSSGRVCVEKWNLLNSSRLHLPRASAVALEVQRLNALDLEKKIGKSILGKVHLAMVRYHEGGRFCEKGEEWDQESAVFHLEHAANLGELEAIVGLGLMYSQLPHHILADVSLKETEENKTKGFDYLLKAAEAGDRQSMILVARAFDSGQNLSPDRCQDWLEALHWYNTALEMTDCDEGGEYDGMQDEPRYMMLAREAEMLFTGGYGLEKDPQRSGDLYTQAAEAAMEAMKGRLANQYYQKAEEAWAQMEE
# Sequence of CAMK1 (Q14012 whole entry): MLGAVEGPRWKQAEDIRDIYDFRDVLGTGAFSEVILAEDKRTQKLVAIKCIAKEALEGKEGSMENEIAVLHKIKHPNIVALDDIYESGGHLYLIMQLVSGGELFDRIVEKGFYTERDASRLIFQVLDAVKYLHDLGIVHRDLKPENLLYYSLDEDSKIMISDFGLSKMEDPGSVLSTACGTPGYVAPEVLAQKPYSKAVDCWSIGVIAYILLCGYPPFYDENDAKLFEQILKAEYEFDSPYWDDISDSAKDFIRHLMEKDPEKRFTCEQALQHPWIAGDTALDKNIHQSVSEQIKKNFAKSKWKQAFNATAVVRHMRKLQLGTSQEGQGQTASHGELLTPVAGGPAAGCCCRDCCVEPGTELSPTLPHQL
# Sequence of SGK1 (O00141 whole entry, species assumed): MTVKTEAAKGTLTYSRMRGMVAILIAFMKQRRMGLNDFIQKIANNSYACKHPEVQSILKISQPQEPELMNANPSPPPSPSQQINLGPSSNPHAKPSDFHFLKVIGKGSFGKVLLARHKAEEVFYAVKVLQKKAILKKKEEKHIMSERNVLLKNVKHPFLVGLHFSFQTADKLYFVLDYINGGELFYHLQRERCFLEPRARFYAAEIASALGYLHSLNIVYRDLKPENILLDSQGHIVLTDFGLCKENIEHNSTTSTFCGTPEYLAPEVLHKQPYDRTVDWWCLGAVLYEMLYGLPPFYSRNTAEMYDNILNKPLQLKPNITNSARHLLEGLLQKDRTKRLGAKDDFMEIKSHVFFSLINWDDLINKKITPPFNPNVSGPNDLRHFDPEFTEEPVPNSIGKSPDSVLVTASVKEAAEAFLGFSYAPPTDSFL
# Sequence of SmMLCK (Q15746 923-1914): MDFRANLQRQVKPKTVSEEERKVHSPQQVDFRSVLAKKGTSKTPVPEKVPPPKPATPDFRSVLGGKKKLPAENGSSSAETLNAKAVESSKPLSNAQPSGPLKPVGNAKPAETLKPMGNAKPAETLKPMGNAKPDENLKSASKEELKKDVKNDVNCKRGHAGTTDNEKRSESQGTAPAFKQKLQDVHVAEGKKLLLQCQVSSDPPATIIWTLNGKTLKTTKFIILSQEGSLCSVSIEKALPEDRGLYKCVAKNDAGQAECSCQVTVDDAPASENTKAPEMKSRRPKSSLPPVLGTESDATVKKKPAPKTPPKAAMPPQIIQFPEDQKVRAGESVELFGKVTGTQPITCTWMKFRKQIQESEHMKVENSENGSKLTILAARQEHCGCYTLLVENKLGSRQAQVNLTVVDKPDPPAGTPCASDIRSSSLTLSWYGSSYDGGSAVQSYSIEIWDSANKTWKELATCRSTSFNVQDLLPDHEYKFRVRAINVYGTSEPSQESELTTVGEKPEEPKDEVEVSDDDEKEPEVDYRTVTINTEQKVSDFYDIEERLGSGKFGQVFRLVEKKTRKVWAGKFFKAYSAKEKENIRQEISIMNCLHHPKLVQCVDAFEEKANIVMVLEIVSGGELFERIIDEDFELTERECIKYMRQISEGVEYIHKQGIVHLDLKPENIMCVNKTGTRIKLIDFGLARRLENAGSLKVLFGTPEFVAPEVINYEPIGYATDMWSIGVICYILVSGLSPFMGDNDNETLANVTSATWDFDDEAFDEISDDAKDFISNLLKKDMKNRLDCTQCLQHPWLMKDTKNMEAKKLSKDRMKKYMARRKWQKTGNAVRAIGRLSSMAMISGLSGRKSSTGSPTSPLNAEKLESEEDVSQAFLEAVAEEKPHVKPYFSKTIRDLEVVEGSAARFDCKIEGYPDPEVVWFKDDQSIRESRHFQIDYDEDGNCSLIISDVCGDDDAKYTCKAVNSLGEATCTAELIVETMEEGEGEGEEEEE
structure (smiles),measurement,setting,value
NCc1ccc(-c2ccccc2F)c(Cl)c1 [Compound 6],Enthalpy,[1],-1.253 kcal/mol
same,Entropy,[1],-25.4 cal/mol/deg
same,LE (ligand efficiency),[1],0.32
O=C(O)c1ccc2c(c1)nc(Nc1cccc(C(F)(F)F)c1)c1nc(NC3CC3)ncc12 [CX5279],number of kinases with > 70% inhibition,"[2]; ref 5 (R. Battistutta et al., Biochemistry, 2011)",4
CCc1ccccc1-c1ccc(CNCCc2nc3ccccc3[nH]2)cc1OC(F)(F)F [Compound 34],inhibition at 10 µM,[3],39%
CCc1ccccc1-c1ccc(CNCCc2nc3ccccc3[nH]2)cc1OC [Compound 33],inhibition at 10 µM,[3],41%
CCc1ccccc1-c1c(Cl)cc(CNCCc2nc3cccc(OC)c3[nH]2)cc1Cl [Compound 35],inhibition at 10 µM,[3],47%
CC(C)c1ccccc1-c1ccc(CN)cc1Cl.Cl [Compound 4],Enthalpy,[1],-1.846 kcal/mol
same,Entropy,[1],-23.2 cal/mol/deg
same,LE (ligand efficiency),[1],0.29
CCc1ccccc1-c1ccc(CNCCc2nc3ccc(OC)cc3[nH]2)cc1Cl.Cl [Compound 29],inhibition at 10 µM,[3],64%
same,GI50,[4],11 µM
same,solubility,[5],≤ 50 µM
CCc1ccccc1-c1c(Cl)cc(CNCCc2nc3ccccc3[nH]2)cc1Cl [CAM4712],inhibition of the phosphorylation of Ser129 of Akt1,[6],good inhibition
same,inhibition at 10 µM,[3],80%
same,solubility for ITC,,not soluble enough for ITC
same,solubility in water,,moderate solubility
same,inhibition at 30 µM,[7],> 50%
same,GI50,[4],10 ± 3.6 µM
same,Enthalpy,[1],-4.09 kcal/mol
same,Entropy,[1],9.46 cal/mol/deg
same,inhibition at 30 µM,[8],> 50%
same,inhibition at 30 µM,[9],> 50%
same,Drop in potency,[10],No
same,inhibition at 30 µM,[11],> 50%
same,number of kinases inhibited for more than 50%,[12],4
same,Inhibition of binding of compound 37 (Lys68 probe) to CK2α,[13]; 20 μM CAM4712,not inhibited
same,Enthalpy,[13]; CAM4712 in competition with 15,-3.42 kcal/mol
same,Enthalpy,[13]; CAM4712 in competition with CAM4066,-11.71 kcal/mol
same,Enthalpy,[13]; CAM4712 in competition with CX4945,-5.9 kcal/mol
same,decrease in potency compared to CAM4066,[14],10 fold
same,solubility,[5],≤ 50 µM
Cl.NCc1cc(Cl)c(-c2ccccc2)c(Cl)c1 [Compound 14],Enthalpy,[1],-3.333 kcal/mol
same,Entropy,[1],9.78 cal/mol/deg
same,LE (ligand efficiency),[1],0.43
CCc1ccccc1-c1c(Cl)cc(CNCCc2nc3ccc(OC)cc3[nH]2)cc1Cl [Compound 36],inhibition at 10 µM,[3],46%
CCc1ccccc1-c1ccc(CNCCc2nc3cccc([N+](=O)[O-])c3[nH]2)cc1Cl [Compound 25],inhibition at 10 µM,[3],50%
Cl.NCc1ccc(-c2cccc3ccccc23)c(Cl)c1 [Compound 12],Enthalpy,[1],-8.425 kcal/mol
same,Entropy,[1],-11 cal/mol/deg
same,LE (ligand efficiency),[1],0.27
CCc1ccccc1-c1ccc(CNCCc2nc3ccc([N+](=O)[O-])cc3[nH]2)cc1Cl [Compound 28],inhibition at 10 µM,[3],36%
CCc1ccccc1-c1ccc(CNCCc2nc3ccccc3[nH]2)cc1Cl [Compound 23],inhibition of the phosphorylation of Ser129 of Akt1,[6],good inhibition
same,GI50,[4],10 µM
same,solubility,[5],≤ 50 µM
Clc1cc(CNCCc2cnc[nH]2)ccc1-c1ccccc1 [Compound 20],inhibition at 500 µM,[3],50%
O=C(O)c1ccc2c(c1)nc(Nc1cccc(Cl)c1)c1ccncc12 [CX4945],IC50,[15],[…]
same,GI50,[4],11.3 ± 1.2 µM
same,number of kinases with > 70% inhibition,"[2]; ref 2 (H. Kim et al., PLoS One, 2014)",26
same,number of other kinases inhibited with nanomolar affinity,[2],12
CCc1ccccc1-c1ccc(CNCCc2nc3ccc(Cl)cc3[nH]2)cc1Cl [Compound 30],inhibition at 10 µM,[3],50%
CCc1ccccc1-c1c(Cl)cc(CN)cc1Cl.O=C(O)C(F)(F)F [Compound 15],Enthalpy,[1],-6.361 kcal/mol
same,Entropy,[1],11.8 cal/mol/deg
same,LE (ligand efficiency),[1],0.41
COc1ccccc1-c1ccc(CN)cc1Cl.Cl [Compound 5],Enthalpy,[1],-1.184 kcal/mol
same,Entropy,[1],-23.2 cal/mol/deg
same,LE (ligand efficiency),[1],0.30
Clc1cc(CNCCCc2ccccc2)ccc1-c1ccccc1 [Compound 18],inhibition at 500 µM,[3],40%
CCc1ccccc1-c1ccc(CNCCc2nc3ccc(C)cc3[nH]2)cc1Cl [Compound 27],inhibition at 10 µM,[3],38%
CCc1ccccc1-c1ccc(CNCCc2nc3cccc(C)c3[nH]2)cc1Cl [Compound 24],inhibition at 10 µM,[3],45%
Cc1ccccc1-c1ccc(CN)cc1Cl.Cl [Compound 2],Enthalpy,[1],-5.054 kcal/mol
same,Entropy,[1],3.11 cal/mol/deg
same,LE (ligand efficiency),[1],0.38
CCc1ccccc1-c1ccc(CNCCc2nc3ccccc3[nH]2)cc1C(F)(F)F [Compound 32],inhibition at 10 µM,[3],23%
Clc1cc(CNCc2ccccc2)ccc1-c1ccccc1 [Compound 16],inhibition at 500 µM,[3],54%
CCc1ccccc1-c1ccc(CNCCc2nc3cccc(OC)c3[nH]2)cc1Cl.Cl [Compound 26],inhibition of the phosphorylation of Ser129 of Akt1,[6],good inhibition
same,inhibition at 10 µM,[3],52%
same,GI50,[4],11 µM
same,solubility,[5],≤ 50 µM
CCc1ccccc1-c1ccc(CNCCc2nc3ccccc3[nH]2)cc1C [Compound 31],inhibition at 10 µM,[3],30%
Cc1cc(F)ccc1-c1ccc(CN)cc1Cl.Cl [Compound 11],Enthalpy,[1],-6.977 kcal/mol
same,Entropy,[1],-5.21 cal/mol/deg
same,LE (ligand efficiency),[1],0.33
Cl.NCc1ccc(-c2ccccc2O)c(Cl)c1 [Compound 7],Enthalpy,[1],-5.671 kcal/mol
same,Entropy,[1],-3.34 cal/mol/deg
same,LE (ligand efficiency),[1],0.30
Clc1cc(CNCCc2ccccc2)ccc1-c1ccccc1 [Compound 17],inhibition at 500 µM,[3],42%
Clc1cc(CNCc2ccc[nH]2)ccc1-c1ccccc1 [Compound 19],inhibition at 500 µM,[3],52%
